Data from publication PMC3665241, “Scaffold-Focused Virtual Screening: Prospective Application to the Discovery of TTK Inhibitors” (Journal of Chemical Information and Modeling, 2013).

Columns and labels:
[1] = biological target: T1, GST-tagged recombinant human full-length TTK protein kinase (Homo sapiens, UniProt P33981); experiment: TTK mobility shift microfluidics assay, single-concentration percent inhibition screen; format: biochemical; conditions: 12.5 nM TTK, 10 μM ATP, mean of duplicate ± SD; for inhibition at 40 µM: compound at 40 μM, 1% DMSO; for inhibition at 400 µM: compound at 400 μM (fragment-like, MW < 300 Da)
T1 construct: GST-tagged recombinant human full-length TTK protein kinase; purchased Invitrogen (Life Technologies Ltd., Paisley, U.K.)
T1 sequence (P33981 1-857): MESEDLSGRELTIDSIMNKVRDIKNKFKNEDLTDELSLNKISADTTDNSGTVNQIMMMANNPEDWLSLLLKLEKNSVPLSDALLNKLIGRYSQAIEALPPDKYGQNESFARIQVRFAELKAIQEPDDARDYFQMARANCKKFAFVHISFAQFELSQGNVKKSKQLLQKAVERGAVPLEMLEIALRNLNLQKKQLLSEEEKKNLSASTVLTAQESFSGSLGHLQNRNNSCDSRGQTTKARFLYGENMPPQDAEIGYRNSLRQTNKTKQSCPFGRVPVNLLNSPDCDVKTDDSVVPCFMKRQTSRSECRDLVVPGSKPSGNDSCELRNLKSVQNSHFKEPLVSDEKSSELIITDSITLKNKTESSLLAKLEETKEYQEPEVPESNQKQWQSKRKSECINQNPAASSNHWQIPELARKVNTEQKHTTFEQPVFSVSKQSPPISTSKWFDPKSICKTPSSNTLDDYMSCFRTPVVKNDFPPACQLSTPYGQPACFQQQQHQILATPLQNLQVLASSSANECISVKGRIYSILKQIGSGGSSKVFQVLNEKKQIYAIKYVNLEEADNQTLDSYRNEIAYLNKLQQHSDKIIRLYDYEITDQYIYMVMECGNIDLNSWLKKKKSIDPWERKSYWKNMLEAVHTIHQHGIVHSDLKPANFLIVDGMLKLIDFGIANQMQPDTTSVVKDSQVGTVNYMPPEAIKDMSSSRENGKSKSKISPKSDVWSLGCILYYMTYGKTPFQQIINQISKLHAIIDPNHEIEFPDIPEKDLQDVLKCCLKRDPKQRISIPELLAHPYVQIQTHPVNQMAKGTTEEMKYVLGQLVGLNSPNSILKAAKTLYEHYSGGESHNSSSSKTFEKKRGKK
Protocol: The TTK kinase activity was measured in a mobility shift microfluidics assay with the Caliper LabChip EZReader II (Caliper Life Sciences, Hopkinton, MA, U.S.A.). For the initial percent inhibition compound screen, all compounds were tested at 40 μM, and fragment-like compounds (MW < 300 Da) were also tested at 400 μM. A 2.14 μM stock of GST-tagged recombinant human full-length TTK protein kinase from Invitrogen (Invitrogen, Life Technologies Ltd., Paisley, U.K.) and custom synthesized peptide from Pepceuticals (Pepceuticals Ltd., Enderby, U.K.) with sequence 5-FAM-[…]-amide were used. […] For every 10 mL of stock buffer, one Roche EDTA free complete mini-protease inhibitor cocktail tablet (Roche, Basel, Switzerland) was added. TTK was used at a final concentration of 12.5 nM. The assay plate was sealed and incubated at room temperature for 60 min. The assay was stopped by addition of stop buffer which contained 100 mM HEPES (pH 7.3), 20 mM EDTA, and 0.05% (v/v) Brij-35. The assay plate was then analyzed using the EZReader II. Z′ for compounds at 40 μM was 0.48, and Z′ for compounds at 400 μM was 0.61.

[2] = biological target: T1, GST-tagged recombinant human full-length TTK protein kinase; experiment: TTK mobility shift microfluidics assay, IC50 determination (3 nM TTK); format: biochemical; conditions: for IC50: 3 nM TTK, 10 μM ATP, duplicate on the same plate; for LE (ligand efficiency): from TTK IC50
[3] = biological target: T2, TTK kinase domain (residues 519–808) (Homo sapiens, UniProt P33981); experiment: Soaking of apo TTK kinase domain crystals with inhibitor, X-ray crystallography; format: binding; conditions: crystals soaked with 10–50 mM compound for 24 h
T2 construct: TTK kinase domain (residues 519–808); inferred from Ni-NTA purification with imidazole elution; made in house; host or cells: E. coli BL21 AI
T2 sequence (P33981 519-808): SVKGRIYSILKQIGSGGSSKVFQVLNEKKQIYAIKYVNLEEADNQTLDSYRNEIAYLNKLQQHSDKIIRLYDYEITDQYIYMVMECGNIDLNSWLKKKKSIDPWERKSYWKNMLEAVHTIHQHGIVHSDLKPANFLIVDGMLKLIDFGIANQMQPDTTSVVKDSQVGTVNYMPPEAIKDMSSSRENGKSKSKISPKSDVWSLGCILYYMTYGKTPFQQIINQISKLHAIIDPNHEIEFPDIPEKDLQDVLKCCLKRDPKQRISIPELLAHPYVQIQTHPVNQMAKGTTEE
Excerpt: In recognition of the desirability of protein–ligand crystal structures to educate the efficient follow-up of fragment-like hit matter and our wish to determine the mode of binding of hits identified with the scaffold-focused virtual screen, we sought co-crystal structures of confirmed hits with TTK. To this end, apo crystals of TTK kinase domain were soaked in buffer solution containing the respective inhibitor (2–9). X-ray data were collected for all crystals, and the structures were solved using molecular replacement. We successfully obtained co-crystal structures of TTK with fragment-like hit compounds 3, 4, 5, and 7. […] A summary of crystallographic analysis is presented in Table 4, and the binding modes of compounds 3, 4, 5, and 7 are illustrated in Figure 7 with Fo–Fc electron density omit maps surrounding the ligand shown in green wire-mesh contoured at 3σ. In all four structures, the activation loop of TTK is disordered, possibly due to the presence of a PEG molecule bound to Lys553, a residue which would usually coordinate with Glu571 to help stabilize the activation loop (Lys553 is not shown in Figure 7 for clarity).
TTK was purified and crystallized as described previously.[26] Plasmids for expression of TTK were received from Stefan Knapp, Structural Genomics Consortium, Oxford, U.K. TTK kinase domain (residues 519–808) was expressed in E. coli BL21 AI competent cells (Invitrogen, Life Technologies Ltd., Paisley, U.K.). Cells were cultured in LB media containing kanamycin selection antibiotic and induced with 0.5 mM IPTG and 1g/L L-arabinose at an OD280 of 0.7. Cells were then incubated overnight at 18 °C with shaking at 225 rpm. Cells were harvested and resuspended in lysis buffer containing 50 mM HEPES pH 7.5, 500 mM NaCl, 10 mM imidazole, 5% (v/v) glycerol, lysozyme, and 1 Roche EDTA free complete protease inhibitor cocktail tablet (Roche, Basel, Switzerland) per 3 L of buffer. TTK was purified using Ni–NTA nickel affinity resin and washed in buffer containing 30 mM imidazole. TTK was then eluted from the resin with 250 mM imidazole. Eluate was concentrated using a Vivaspin concentrator with a 30 kDa molecular weight cutoff (GE Healthcare, Chalfont St. Giles, U.K.) and further purified on gel filtration column Superdex 200 16/60 (GE Healthcare, Chalfont St. Giles, U.K.) equilibrated in buffer containing 10 mM HEPES pH 7.5, 150 mM NaCl, 5 mM DTT, and 5 mM EDTA. The sample was concentrated to a final concentration of 8.9 mg/mL, snap frozen on dry ice, and stored at −80 °C until required.
Purified TTK was crystallized at 18 °C using the sitting drop vapor diffusion method with drops composed of 2 μL protein (8.9 mg/mL) and 2 μL reservoir solution placed over 200 μL reservoir solution of H2O/PEG300 (30–45% (v/v)) in 48 well plates. […]

SMILES | inhibition at 40 µM [1] | inhibition at 400 µM [1] | IC50 ([2]; 1% DMSO) | LE (ligand efficiency) [2] | binding in ATP binding site of soaked TTK crystals (electron density) [3] | IC50 ([2]; 10% DMSO (asterisk))
Nc1nnc2c([nH]c3ccccc32)c1-c1ccccc1 [Compound 2] | 52 ± 1.41% | 56 ± 1.41% | 53 µM | 0.29 | not bound | –
c1cc2cnc3sccc3c2cn1 [Compound 3, Thieno[2,3-c][2,6]naphthyridine] | 70% | 105.5 ± 0.71% | – | 0.45 | – | –
c1ccc2c(c1)[nH]c1cncnc12 [Compound 4, 5H-pyrimido[5,4-b]indole] | 42.5 ± 0.71% | 63 ± 2.83% | – | 0.44 | – | –
c1cc2cnc3ccsc3c2cn1 [Compound 5, thieno[3,2-c][2,6]naphthyridine] | 46 ± 1.41% | 65 ± 2.83% | – | 0.44 | – | –
c1ccc(-c2nc3cnccc3[nH]2)nc1 [Compound 6] | 21.5 ± 2.12% | 66% | 91.5 µM | 0.37 | not bound | –
c1cc2c(cn1)cnc1sccc12 [Compound 7, thieno[2,3-c][2,7]naphthyridine] | 51 ± 1.41% | 94.5 ± 2.12% | – | 0.42 | – | –
COc1ccc2c(c1)[nH]c1c(C)nccc12 [Compound 8, harmine] | 19% | 65 ± 1.41% | 160 µM | 0.32 | not bound | –
N#Cc1ccccc1NC(=O)Cn1ncc2c1-c1ccccc1OC2 [Compound 10] | 53.5 ± 0.71% | – | – | – | – | –
COc1ccc(Nc2ncnc3sc(-c4ccccc4)cc23)cc1OC [Compound 11] | 64 ± 1.41% | – | 2.1 µM | 0.30 | – | –
COc1ccc(C(=O)c2oc3cc(NC(C)=O)ccc3c2C)cc1OC [Compound 12] | 68.5 ± 2.12% | – | 4.2 µM | 0.28 | – | –
COc1ccc(Nc2nc(N)nc3nc[nH]c23)cc1OC [Compound 13] | 72 ± 1.41% | 86 ± 0.41% | 7.7 µM | 0.33 | – | –
COc1ccc(Nc2cc(-c3ccccc3)ncn2)cc1OC [Compound 14] | 68.5 ± 0.71% | – | 9.9 µM | 0.30 | – | –
COc1ccc(Nc2cc(C)nc(SC)n2)cc1OC [Compound 15] | 57.5 ± 2.12% | 75.5 ± 0.71% | 19.6 µM | 0.32 | – | –
COc1ccc(Nc2ncnc3c2cnn3C)cc1OC [Compound 16] | 45.5 ± 2.12% | 82.5 ± 0.71% | 19.3 µM | 0.31 | – | –
COc1ccc(Nc2ncnc3[nH]ncc23)cc1OC [Compound 17] | 69% | 67% | 33.3 µM | 0.31 | – | –
COc1ccc(Nc2ncnc3nc[nH]c23)cc1OC [Compound 18] | 34 ± 2.83% | 67 ± 0.41% | 40.9 µM | 0.30 | – | –
COc1ccc(Nc2cc(Cl)nc(N)n2)cc1OC [Compound 19] | 65.5 ± 0.71% | 96.5 ± 0.71% | 56.2 µM | 0.30 | – | –
COc1ccc(Nc2ccc3nnnn3n2)cc1OC [Compound 20] | 71.5 ± 0.71% | 24.5 ± 2.12% | – | 0.28 | – | 78.6 µM
COc1ccc(Nc2ccc3nnc(C(F)(F)F)n3n2)cc1OC [Compound 21] | 59 ± 2.83% | – | – | 0.23 | – | 90.1 µM
COc1ccc(Nc2nc(Nc3ccc(OC)c(OC)c3)c3[nH]cnc3n2)cc1OC [Compound 22] | 71.5 ± 2.12% | – | < 0.025 µM | – | – | –
COc1ccc(NC(=O)c2nc[nH]n2)cc1OC [Compound 23] | 23 ± 4.24% | 51 ± 1.41% | > 1000 µM | – | – | –
COc1ccc(Nc2cc(C)nc3ncnn23)cc1OC [Compound 24] | 52% | 34.5 ± 0.71% | > 1000 µM | – | – | –
